Measured values as given in the kinase profiling compilation of Christmann-Franck et al. (2016).

What was measured:
Test in all cases: KINOMEscan competition binding
[1] = tested on: ABL1 (human), P00519 [E255K]; conditions: compound 1.0 µM
ACVR1 (human) = ACVR1 (human) (UniProt Q04771); conditions: compound 1.0 µM
ACVR1B (human) = ACVR1B (human) (UniProt P36896); conditions: compound 1.0 µM
BMPR1B (human) = BMPR1B (human) (UniProt O00238); conditions: compound 1.0 µM
[2] = tested on: BRAF (human), P15056 [V600E]; conditions: compound 1.0 µM
CAMK1D (human) = CAMK1D (human) (UniProt Q8IU85); conditions: compound 1.0 µM
CAMK1G (human) = CAMK1G (human) (UniProt Q96NX5); conditions: compound 1.0 µM
CAMK2A (human) = CAMK2A (human) (UniProt Q9UQM7); conditions: compound 1.0 µM
CAMK2G (human) = CAMK2G (human) (UniProt Q13555); conditions: compound 1.0 µM
CDC2L2 (human) = CDC2L2 (human) (UniProt Q9UQ88); conditions: compound 1.0 µM
CDK2 (human) = CDK2 (human) (UniProt P24941); conditions: compound 1.0 µM
CIT (human) = CIT (human) (UniProt O14578); conditions: compound 1.0 µM
CLK1 (human) = CLK1 (human) (UniProt P49759); conditions: compound 1.0 µM
CSNK1D (human) = CSNK1D (human) (UniProt P48730); conditions: compound 1.0 µM
DYRK1B (human) = DYRK1B (human) (UniProt Q9Y463); conditions: compound 1.0 µM
[3] = tested on: EIF2AK4 KD2 (human), Q9P2K8 [S808G]; conditions: compound 1.0 µM
EPHA4 (human) = EPHA4 (human) (UniProt P54764); conditions: compound 1.0 µM
EPHA8 (human) = EPHA8 (human) (UniProt P29322); conditions: compound 1.0 µM
EPHB3 (human) = EPHB3 (human) (UniProt P54753); conditions: compound 1.0 µM
EPHB6 (human) = EPHB6 (human) (UniProt O15197); conditions: compound 1.0 µM
ERBB2 (human) = ERBB2 (human) (UniProt P04626); conditions: compound 1.0 µM
IKBKE (human) = IKBKE (human) (UniProt Q14164); conditions: compound 1.0 µM
IRAK3 (human) = IRAK3 (human) (UniProt Q9Y616); conditions: compound 1.0 µM
[4] = tested on: KIT (human), P10721 [A829P]; conditions: compound 1.0 µM
[5] = tested on: KIT (human), P10721 [D816V]; conditions: compound 1.0 µM
[6] = tested on: KIT (human), P10721 [L576P]; conditions: compound 1.0 µM
MAP2K7 (human) = MAP2K7 (human) (UniProt O14733); conditions: compound 1.0 µM
MAP3K5 (human) = MAP3K5 (human) (UniProt Q99683); conditions: compound 1.0 µM
MAP3K6 (human) = MAP3K6 (human) (UniProt O95382); conditions: compound 1.0 µM
MAP4K2 (human) = MAP4K2 (human) (UniProt Q12851); conditions: compound 1.0 µM
MAPK1 (human) = MAPK1 (human) (UniProt P28482); conditions: compound 1.0 µM
[7] = tested on: MET (human), P08581 [M1250T]; conditions: compound 1.0 µM
MST4 (human) = MST4 (human) (UniProt Q9P289); conditions: compound 1.0 µM
MYLK4 (human) = MYLK4 (human) (UniProt Q86YV6)
RIOK2 (human) = RIOK2 (human) (UniProt Q9BVS4)
SIK2 (human) = SIK2 (human) (UniProt Q9H0K1); conditions: compound 1.0 µM
SIK3 (human) = SIK3 (human) (UniProt Q9Y2K2); conditions: compound 1.0 µM
STK38 (human) = STK38 (human) (UniProt Q15208); conditions: compound 1.0 µM
STK4 (human) = STK4 (human) (UniProt Q13043); conditions: compound 1.0 µM
TIE1 (human) = TIE1 (human) (UniProt P35590); conditions: compound 1.0 µM
TLK2 (human) = TLK2 (human) (UniProt Q86UE8); conditions: compound 1.0 µM
TYRO3 (human) = TYRO3 (human) (UniProt Q06418); conditions: compound 1.0 µM

Sequence of MYLK4 (human) (Q86YV6 whole entry, looked up): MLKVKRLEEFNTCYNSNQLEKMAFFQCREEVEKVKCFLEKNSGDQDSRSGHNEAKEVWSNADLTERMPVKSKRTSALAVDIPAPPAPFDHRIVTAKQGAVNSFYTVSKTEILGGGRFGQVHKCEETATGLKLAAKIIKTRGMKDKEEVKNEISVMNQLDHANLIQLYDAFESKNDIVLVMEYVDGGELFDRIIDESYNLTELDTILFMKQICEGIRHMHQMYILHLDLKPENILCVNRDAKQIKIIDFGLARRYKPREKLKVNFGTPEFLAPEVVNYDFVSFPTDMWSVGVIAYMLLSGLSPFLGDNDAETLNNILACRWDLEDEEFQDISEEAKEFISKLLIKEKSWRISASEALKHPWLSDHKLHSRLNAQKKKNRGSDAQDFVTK
Sequence of RIOK2 (human) (Q9BVS4 whole entry, looked up): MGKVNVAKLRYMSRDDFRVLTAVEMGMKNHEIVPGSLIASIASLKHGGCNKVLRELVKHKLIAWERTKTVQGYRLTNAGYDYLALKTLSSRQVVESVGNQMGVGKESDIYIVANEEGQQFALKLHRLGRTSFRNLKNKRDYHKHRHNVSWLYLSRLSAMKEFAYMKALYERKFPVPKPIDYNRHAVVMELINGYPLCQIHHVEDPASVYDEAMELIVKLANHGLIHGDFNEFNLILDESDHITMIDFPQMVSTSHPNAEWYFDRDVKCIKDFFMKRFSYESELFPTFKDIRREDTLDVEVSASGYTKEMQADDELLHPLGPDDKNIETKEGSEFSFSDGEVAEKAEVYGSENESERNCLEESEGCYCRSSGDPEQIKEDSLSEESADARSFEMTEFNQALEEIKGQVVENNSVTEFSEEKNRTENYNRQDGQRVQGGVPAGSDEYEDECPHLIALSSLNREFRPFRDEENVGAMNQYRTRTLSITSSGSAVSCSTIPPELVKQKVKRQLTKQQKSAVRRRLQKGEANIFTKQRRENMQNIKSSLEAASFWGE
Sequence of EPHB3 (human) (P54753 whole entry, looked up): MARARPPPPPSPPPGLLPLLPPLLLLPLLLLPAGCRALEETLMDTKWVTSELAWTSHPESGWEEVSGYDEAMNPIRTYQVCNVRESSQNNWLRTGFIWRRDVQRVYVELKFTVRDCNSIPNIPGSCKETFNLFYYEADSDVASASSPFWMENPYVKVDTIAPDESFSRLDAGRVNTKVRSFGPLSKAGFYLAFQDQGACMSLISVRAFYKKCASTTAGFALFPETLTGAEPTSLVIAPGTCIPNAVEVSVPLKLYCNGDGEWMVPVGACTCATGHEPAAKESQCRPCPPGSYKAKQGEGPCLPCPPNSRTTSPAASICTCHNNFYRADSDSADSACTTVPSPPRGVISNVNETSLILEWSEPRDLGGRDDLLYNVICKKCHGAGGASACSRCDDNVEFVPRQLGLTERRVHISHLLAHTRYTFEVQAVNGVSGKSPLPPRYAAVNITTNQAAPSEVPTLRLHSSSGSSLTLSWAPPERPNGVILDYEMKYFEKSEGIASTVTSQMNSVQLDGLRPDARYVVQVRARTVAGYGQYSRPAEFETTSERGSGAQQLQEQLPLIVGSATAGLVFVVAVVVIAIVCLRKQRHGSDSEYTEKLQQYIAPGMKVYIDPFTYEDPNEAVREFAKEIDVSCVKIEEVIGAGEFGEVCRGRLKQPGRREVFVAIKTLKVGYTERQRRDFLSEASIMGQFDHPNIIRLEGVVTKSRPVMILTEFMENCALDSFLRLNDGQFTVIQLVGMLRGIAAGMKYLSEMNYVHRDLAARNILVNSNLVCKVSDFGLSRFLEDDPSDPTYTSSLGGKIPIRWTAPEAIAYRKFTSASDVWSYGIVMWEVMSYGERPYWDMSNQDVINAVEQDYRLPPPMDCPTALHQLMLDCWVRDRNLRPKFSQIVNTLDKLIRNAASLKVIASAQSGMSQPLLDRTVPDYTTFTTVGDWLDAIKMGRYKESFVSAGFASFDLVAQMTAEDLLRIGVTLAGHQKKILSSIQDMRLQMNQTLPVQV
Sequence of MAP4K2 (human) (Q12851 whole entry, looked up): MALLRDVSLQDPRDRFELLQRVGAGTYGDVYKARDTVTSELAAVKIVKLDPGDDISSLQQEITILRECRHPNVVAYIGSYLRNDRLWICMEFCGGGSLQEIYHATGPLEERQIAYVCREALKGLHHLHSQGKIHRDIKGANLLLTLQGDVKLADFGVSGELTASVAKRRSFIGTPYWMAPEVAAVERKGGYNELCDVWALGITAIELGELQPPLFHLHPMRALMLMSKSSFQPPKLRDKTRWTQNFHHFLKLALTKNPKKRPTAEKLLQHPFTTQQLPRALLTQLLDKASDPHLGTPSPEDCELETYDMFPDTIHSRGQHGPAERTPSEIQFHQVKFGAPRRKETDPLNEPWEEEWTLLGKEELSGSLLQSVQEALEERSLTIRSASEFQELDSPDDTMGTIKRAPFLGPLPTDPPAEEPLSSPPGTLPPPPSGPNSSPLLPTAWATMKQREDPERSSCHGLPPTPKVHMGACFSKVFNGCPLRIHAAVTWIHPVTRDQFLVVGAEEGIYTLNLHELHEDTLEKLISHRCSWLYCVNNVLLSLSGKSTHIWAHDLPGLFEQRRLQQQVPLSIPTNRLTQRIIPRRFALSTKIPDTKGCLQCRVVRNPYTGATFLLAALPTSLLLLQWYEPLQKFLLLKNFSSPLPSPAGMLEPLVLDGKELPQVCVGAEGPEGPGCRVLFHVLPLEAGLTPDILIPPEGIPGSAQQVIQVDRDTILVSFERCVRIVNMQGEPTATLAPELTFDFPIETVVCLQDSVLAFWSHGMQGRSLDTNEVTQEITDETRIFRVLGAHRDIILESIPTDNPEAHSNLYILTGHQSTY
Sequence of KIT (human), P10721 [A829P] (P10721 whole entry A829P, looked up): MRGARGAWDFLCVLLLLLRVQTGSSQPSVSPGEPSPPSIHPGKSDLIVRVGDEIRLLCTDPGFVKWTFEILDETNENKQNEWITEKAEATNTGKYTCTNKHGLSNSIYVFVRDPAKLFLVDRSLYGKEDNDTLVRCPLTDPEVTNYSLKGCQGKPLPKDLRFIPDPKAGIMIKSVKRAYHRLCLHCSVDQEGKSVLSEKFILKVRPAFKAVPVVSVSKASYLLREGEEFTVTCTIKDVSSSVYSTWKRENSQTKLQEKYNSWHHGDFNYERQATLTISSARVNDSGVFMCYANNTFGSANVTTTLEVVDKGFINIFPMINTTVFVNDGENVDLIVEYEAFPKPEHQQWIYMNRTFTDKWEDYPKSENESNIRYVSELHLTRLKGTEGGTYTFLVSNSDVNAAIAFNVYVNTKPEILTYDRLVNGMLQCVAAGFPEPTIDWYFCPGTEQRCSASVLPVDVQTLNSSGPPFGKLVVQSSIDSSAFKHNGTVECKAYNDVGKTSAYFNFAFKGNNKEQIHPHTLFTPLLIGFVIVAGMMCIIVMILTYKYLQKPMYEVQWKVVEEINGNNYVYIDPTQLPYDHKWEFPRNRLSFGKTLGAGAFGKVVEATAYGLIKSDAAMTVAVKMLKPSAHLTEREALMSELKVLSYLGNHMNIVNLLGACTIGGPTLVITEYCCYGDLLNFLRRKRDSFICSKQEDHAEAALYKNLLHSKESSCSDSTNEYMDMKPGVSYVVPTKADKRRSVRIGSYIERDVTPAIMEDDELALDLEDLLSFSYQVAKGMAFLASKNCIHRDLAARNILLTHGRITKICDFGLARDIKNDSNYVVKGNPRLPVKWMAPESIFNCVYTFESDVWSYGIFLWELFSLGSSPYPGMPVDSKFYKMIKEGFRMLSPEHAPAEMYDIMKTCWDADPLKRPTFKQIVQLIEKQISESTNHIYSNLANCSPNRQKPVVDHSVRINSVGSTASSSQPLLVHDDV
Sequence of ACVR1B (human) (P36896 whole entry, looked up): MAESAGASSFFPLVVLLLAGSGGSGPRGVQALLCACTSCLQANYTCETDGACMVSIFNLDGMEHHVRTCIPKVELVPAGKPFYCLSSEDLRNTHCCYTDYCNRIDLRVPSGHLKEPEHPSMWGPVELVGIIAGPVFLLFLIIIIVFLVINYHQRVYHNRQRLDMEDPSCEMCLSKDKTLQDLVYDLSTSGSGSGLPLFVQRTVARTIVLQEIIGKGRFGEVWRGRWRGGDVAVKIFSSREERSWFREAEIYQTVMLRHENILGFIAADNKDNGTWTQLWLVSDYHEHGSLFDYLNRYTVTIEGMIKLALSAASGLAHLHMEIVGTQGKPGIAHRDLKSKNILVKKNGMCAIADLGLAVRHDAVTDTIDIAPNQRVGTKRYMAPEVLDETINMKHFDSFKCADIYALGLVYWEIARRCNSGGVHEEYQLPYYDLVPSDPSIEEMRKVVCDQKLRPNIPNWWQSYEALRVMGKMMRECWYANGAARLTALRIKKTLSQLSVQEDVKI
Sequence of CAMK2A (human) (Q9UQM7 whole entry, looked up): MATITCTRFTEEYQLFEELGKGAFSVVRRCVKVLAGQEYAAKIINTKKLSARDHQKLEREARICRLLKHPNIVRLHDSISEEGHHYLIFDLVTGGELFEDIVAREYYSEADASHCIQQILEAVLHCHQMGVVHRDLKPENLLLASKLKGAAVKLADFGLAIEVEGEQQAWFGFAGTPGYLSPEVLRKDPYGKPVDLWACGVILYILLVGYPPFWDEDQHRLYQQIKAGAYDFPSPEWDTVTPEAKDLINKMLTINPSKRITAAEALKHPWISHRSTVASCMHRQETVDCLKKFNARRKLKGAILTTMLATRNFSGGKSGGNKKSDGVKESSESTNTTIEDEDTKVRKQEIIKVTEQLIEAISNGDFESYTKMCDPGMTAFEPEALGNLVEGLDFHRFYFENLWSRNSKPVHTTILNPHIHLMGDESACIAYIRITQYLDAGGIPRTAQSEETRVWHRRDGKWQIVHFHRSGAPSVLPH
Sequence of KIT (human), P10721 [D816V] (P10721 whole entry D816V, looked up): as the sequence (P10721 whole entry A829P, looked up) above, with D816V, P829A counted along it
Sequence of KIT (human), P10721 [L576P] (P10721 whole entry L576P, looked up): as the sequence (P10721 whole entry A829P, looked up) above, with L576P, P829A counted along it

With `Cc1cc(NC(=O)c2cccc(NC(=O)/C=C/CN(C)C)c2)ccc1Nc1nccc(-c2cccnc2)n1` the kinase still bound, per cent of control [1] was 100%, the kinase still bound, per cent of control (ACVR1 (human)) was 100% and the kinase still bound, per cent of control (ACVR1B (human)) was 88%. The kinase still bound, per cent of control (BMPR1B (human)) was 92%, the kinase still bound, per cent of control [2] was 100% and the kinase still bound, per cent of control (CAMK1D (human)) was 100%. For the same molecule, the kinase still bound, per cent of control (CAMK1G (human)) was 100%, the kinase still bound, per cent of control (CAMK2A (human)) was 100% and the kinase still bound, per cent of control (CAMK2G (human)) was 100%. It also gave a kinase still bound, per cent of control (CDC2L2 (human)) of 98%, a kinase still bound, per cent of control (CDK2 (human)) of 77% and a kinase still bound, per cent of control (CIT (human)) of 100%. The kinase still bound, per cent of control (CLK1 (human)) was 100%, the kinase still bound, per cent of control (CSNK1D (human)) was 18% and the kinase still bound, per cent of control (DYRK1B (human)) was 100%. For the same molecule, the kinase still bound, per cent of control [3] was 100%, the kinase still bound, per cent of control (EPHA4 (human)) was 100% and the kinase still bound, per cent of control (EPHA8 (human)) was 100%. For the same molecule, the kinase still bound, per cent of control (EPHB3 (human)) was 100%, the kinase still bound, per cent of control (EPHB6 (human)) was 71% and the kinase still bound, per cent of control (ERBB2 (human)) was 82%. For the same molecule, the kinase still bound, per cent of control (IKBKE (human)) was 91%, the kinase still bound, per cent of control (IRAK3 (human)) was 85% and the kinase still bound, per cent of control [4] was 69%. For the same molecule, the kinase still bound, per cent of control [5] was 54%, the kinase still bound, per cent of control [6] was 100% and the kinase still bound, per cent of control (MAP2K7 (human)) was 59%. It also gave a kinase still bound, per cent of control (MAP3K5 (human)) of 100%, a kinase still bound, per cent of control (MAP3K6 (human)) of 92% and a kinase still bound, per cent of control (MAP4K2 (human)) of 67%. For the same molecule, the kinase still bound, per cent of control (MAPK1 (human)) was 99%, the kinase still bound, per cent of control [7] was 6.2% and the kinase still bound, per cent of control (MST4 (human)) was 82%. It also gave a Kd (MYLK4 (human)) of 4000 nM, a kinase still bound, per cent of control (MYLK4 (human); compound 1.0 µM) of 9.6% and a Kd (RIOK2 (human)) of 120 nM. It also gave a kinase still bound, per cent of control (RIOK2 (human); compound 1.0 µM) of 10%, a kinase still bound, per cent of control (SIK2 (human)) of 88% and a kinase still bound, per cent of control (SIK3 (human)) of 100%. For the same molecule, the kinase still bound, per cent of control (STK38 (human)) was 97%, the kinase still bound, per cent of control (STK4 (human)) was 100% and the kinase still bound, per cent of control (TIE1 (human)) was 91%. The kinase still bound, per cent of control (TLK2 (human)) was 100% and the kinase still bound, per cent of control (TYRO3 (human)) was 85%.
